For 30 compounds, IC50 and inhibition results are on record in US6583299B1, “α-amino-β-sulfonyl hydroxamic acid compounds” (priority 1999, dated 2003).

Values joined by “and” are separate entries in the source; they are usually repeats but may differ in a detail not shown here. Equal values may be shown once.

For test [1], the target named is T1, MMP-1 (Homo sapiens, UniProt P03956).
T1 construct: host or cells: transfected HT-1080 cells
T1 sequence (P03956 100-469): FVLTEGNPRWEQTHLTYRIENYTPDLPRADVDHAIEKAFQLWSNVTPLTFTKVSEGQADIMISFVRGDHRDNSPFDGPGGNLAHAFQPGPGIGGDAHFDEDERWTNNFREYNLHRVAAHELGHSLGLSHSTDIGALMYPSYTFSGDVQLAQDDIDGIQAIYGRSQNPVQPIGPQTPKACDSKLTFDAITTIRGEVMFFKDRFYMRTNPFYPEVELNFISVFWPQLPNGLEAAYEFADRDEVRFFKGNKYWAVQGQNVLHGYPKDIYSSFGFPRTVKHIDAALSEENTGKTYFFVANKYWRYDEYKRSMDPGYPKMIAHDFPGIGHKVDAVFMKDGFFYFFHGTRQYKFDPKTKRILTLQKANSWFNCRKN
Description: In vitro metalloprotease inhibition, fluorogenic MCA peptide substrate. The test is classed as biochemical. The note with it: recombinant human enzyme, APMA-activated, room temperature, pH 7.5.
Description: Briefly, 4-aminophenylmercuric acetate (APMA) or trypsin-activated MMPs were incubated with various concentrations of the inhibitor compound at room temperature for 5 minutes.
The expressed enzyme was purified first over a heparin agarose column and then over a chelating zinc chloride column. The proenzyme was activated by APMA for use in the assay.
MMP-1 expressed in transfected HT-1080 cells was provided by Dr. Harold Welgus of Washington University, St. Louis, Mo. The enzyme was also activated using APMA and was then purified over a hydroxamic acid column.
The enzyme substrate is a methoxycoumarin-containing polypeptide having the following sequence:
MCA-ProLeuGlyLeuDpaAlaArgNH2, wherein MCA is methoxycoumarin and Dpa is 3-(2,4-dinitrophenyl)-L-2,3-diaminopropionyl alanine.
The assayed inhibitor compound in DMSO/buffer solution was compared to an equal amount of DMSO/buffer with no inhibitor as control using Microfluor™ White Plates (Dynatech). The inhibitor or control solution was maintained in the plate for 10 minutes and the substrate was added to provide a final concentration of 4 μM.
Inhibition was measured as a reduction in fluorescent intensity as a function of inhibitor concentration, using a Perkin Elmer L550 plate reader. The IC50 values were calculated from those values.

Test [2] deals with T2, MMP-13 (Homo sapiens, UniProt P45452).
T2 construct: made in house; host or cells: baculovirus / insect cells
Described as above. The test is classed as biochemical. Conditions: recombinant human enzyme, APMA-activated, room temperature, pH 7.5; read-out: MMP-13 IC50.

The test system of test [3] is human moncytic line U-937. Nature of the test: Tumor necrosis factor assay: PMA-stimulated TNF release, TNFα ELISA. The test is classed as cell-based. Conditions: U-937 cells; for inhibition at 10 µM: compound at 10 μM, read-out: Per Cent Inhibition of TNF? Release [average]. As for the experimental part: The cells used in the assay are the human moncytic line U-937 (ATCC CRL-1593). The cells are grown RPMI w/10% FCS and PSG supplement (R-10) and are not permitted to overgrow. The assay is carried out as follows:
1. Count, then harvest cells by centrifugation. Resuspend the pellet in R-10 supplement to a concentration of 1.540×10^6 cells/mL.
2. Add test compound in 65 μL R-10 to the appropriate wells of a 96-well flat bottom tissue culture plate. The initial dilution from a DMSO stock (100 mM compound) provides a 400 μM solution, from which five additional three-fold serial dilutions are made.
3. The counted, washed and resuspended cells (200,000 cells/well) in 130 μL are added to the wells.
4. Incubation is for 45 minutes to one hour at 37° C. in 5% CO2 in a water saturated container.
5. R-10 (65 μL)containing 160 ng/mL PMA (Sigma) is added to each well. 6. The test system is incubated at 37° C. in 5% CO2 overnight (18-20 hours) under 100% humidity.
7. Supernatant, 150 μL, is carefully removed from each well for use in the ELISA assay.
Coat Immulon® 2 plates with 0.1 mL/well of 1 ug/mL Genzyme mAb in 0.1 M NaHCO3 pH 8.0 buffer overnight (about 18-20 hours) at 4° C., wrapped tightly in Saran® wrap.
Wash wells thoroughly 4× with wash buffer and completely remove all wash buffer. Add 0.1 mL/well of either samples or rhTNFα standards. Dilute samples if necessary in appropriate diluent (e.g. tissue culture medium). Dilute standard in same diluent. Standards and samples should be in triplicates.
Wash plates as above. Add 0.1 mL/well of 1:200 dilution of Genzyme rabbit anti-hTNFα.
Repeat wash. Add 0.1 mL/well of 1 μg/mL Jackson goat anti-rabbit IgG (H+L)-peroxidase.
Repeat wash. Add 0.1 mL/well of peroxide-ABTS solution.
On the technique in general: In an ELISA, binding on a coated surface is turned into a signal by an enzyme label.

For test [4], the target named is T3, MMP-2 (Homo sapiens, UniProt P08253).
T3 sequence (P08253 110-660): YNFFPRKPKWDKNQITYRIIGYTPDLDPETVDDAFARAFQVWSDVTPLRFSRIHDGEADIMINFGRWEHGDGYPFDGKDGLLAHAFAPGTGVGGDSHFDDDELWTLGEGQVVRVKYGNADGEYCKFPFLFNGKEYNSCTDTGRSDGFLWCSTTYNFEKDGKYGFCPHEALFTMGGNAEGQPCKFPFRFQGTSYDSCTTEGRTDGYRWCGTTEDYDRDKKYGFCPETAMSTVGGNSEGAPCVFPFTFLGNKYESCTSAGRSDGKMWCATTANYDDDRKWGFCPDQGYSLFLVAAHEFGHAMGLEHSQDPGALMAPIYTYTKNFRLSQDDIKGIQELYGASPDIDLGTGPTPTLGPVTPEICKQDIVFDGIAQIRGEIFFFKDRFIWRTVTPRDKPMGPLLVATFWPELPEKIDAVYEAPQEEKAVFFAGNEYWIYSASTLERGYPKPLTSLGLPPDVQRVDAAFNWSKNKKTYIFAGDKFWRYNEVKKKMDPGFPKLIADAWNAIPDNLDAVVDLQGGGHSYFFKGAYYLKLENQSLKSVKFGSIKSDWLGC
Description: In vitro metalloprotease inhibition, fluorogenic MCA peptide substrate. The note with it: room temperature, pH 7.5. The test is classed as biochemical.
Description: Briefly, 4-aminophenylmercuric acetate (APMA) or trypsin-activated MMPs were incubated with various concentrations of the inhibitor compound at room temperature for 5 minutes. […] The assayed inhibitor compound in DMSO/buffer solution was compared to an equal amount of DMSO/buffer with no inhibitor as control using MicrofluorTM White Plates (Dynatech). The inhibitor or control solution was maintained in the plate for 10 minutes and the substrate was added to provide a final concentration of 4 μM. […] Inhibition was measured as a reduction in fluorescent intensity as a function of inhibitor concentration, using a Perkin Elmer [MUT] plate reader. The IC50 values were calculated from those values.

By IC50 is commonly meant the concentration that gives 50% inhibition. For orientation: inhibition means the drop in the measured response relative to a control, in per cent. On to `COc1ccc(S(=O)(=O)CC(NC(=O)c2ccccc2)C(=O)NO)cc1` (stereo not shown) [Example 3, N-Hydroxy-3-[(4-methoxyphenyl)sulfonyl]-2-[(phenylcarbonyl)amino]propanamide], for which the IC50 in test [1] is 2000 nM; in test [2], 25 nM. For the same compound, the inhibition at 10 µM in test [3] was found to be 3.72%.

As to `CCCCC(=O)NC(CS(=O)(=O)c1ccc(OC)cc1)C(=O)NO` (stereo not shown) [Example 4, N-Hydroxy-3-[(4-methoxyphenyl)sulfonyl]-2-[(butylcarbonyl)amino]propanamide], the IC50 in test [1] was 400 nM; in test [2], 3.5 nM; in test [3], more than 50000 nM. Besides, in test [3], the inhibition at 10 µM was -3.8%.

Turning to `CC(=O)NC(CS(=O)(=O)c1ccc(Br)cc1)C(=O)NO` (stereo not shown) [Example 5, N-Hydroxy-3-[(4-bromophenyl)sulfonyl]-2-[(methylcarbonyl)amino]propanamide], the IC50 in test [1] was 100 nM; in test [2] it was 200 nM; in test [3] it was more than 50000 nM. Further, the inhibition at 10 µM in test [3] is -10.8%.

For the compound `COc1ccc(S(=O)(=O)CC(NC(=O)CCC(=O)OCc2ccccc2)C(=O)NO)cc1` (stereo not shown) [Example 7], the IC50 in test [1] is 200 nM; in test [2], 2.5 nM; in test [3], more than 50000 nM.

For the compound `COc1ccc(S(=O)(=O)CC(NC(=O)CCC(=O)O)C(=O)NO)cc1` (stereo not shown) [Example 8], the IC50 in test [1] is 600 nM; in test [2] it was 60 nM; in test [3], more than 50000 nM.

On to `Cc1ccc(S(=O)(=O)NC(CS(=O)(=O)c2ccc(Oc3ccccc3)cc2)C(=O)NO)cc1` (stereo not shown) [Example 12c], for which the concentration for half-maximal inhibition (IC50) in test [1] was 400 nM; in test [2], 0.6 nM; in test [4] it was less than 0.1 nM.

As to `CC(=O)NC(CS(=O)(=O)c1ccc(Sc2ccccc2)cc1)C(=O)NO` (stereo not shown) [Example 15b, 2-(Acetylamino)-N-hydroxy-3-[[4-(phenylthio)phenyl]sulfonyl]propanamide], the results for the IC50 in test [1], in test [2] and in test [4] were more than 10000 nM, 5.9 nM and 2.2 nM, respectively.

With `COc1ccc(S(=O)(=O)CC(N)C(=O)NO)cc1` (stereo not shown) [Example 22], the half-maximal inhibitory concentration (IC50) was 250 nM in test [1], 15 nM in test [2] and more than 29000 nM in test [3].

`O=C(NC(CS(=O)(=O)c1ccc(Sc2ccccc2)cc1)C(=O)NO)c1ccncc1` (stereo not shown) [Example 28]: the IC50 was more than 10000 nM in test [1], 13 nM in test [2] and 5.5 nM in test [4].

For `CC(=O)N[C@@H](CS(=O)(=O)c1ccc(Sc2ccccc2)cc1)C(=O)NO` [Example 30], the figures for the IC50 in test [2] and in test [4] were 2.9 nM and 0.5 nM, respectively.

Consider `COc1ccc(CC(=O)NC(CS(=O)(=O)c2ccc(Sc3ccccc3)cc2)C(=O)NO)c(OC)c1` (stereo not shown) [Example 31], for which the IC50 in test [1] worked out at 3000 nM; in test [2] it was 0.4 nM; in test [4] it was 0.8 nM.

`CC(C)(C)OC(=O)N[C@@H](CS(=O)(=O)c1ccc(Oc2ccccc2)cc1)C(=O)NO` [Example 33]: the IC50 in test [1] turned out to be 500 nM; in test [2], 0.3 nM; in test [4], 0.2 nM.

For the compound `COc1cccc(OC)c1C(=O)N[C@@H](CS(=O)(=O)c1ccc(Oc2ccccc2)cc1)C(=O)NO` [Example 37], the IC50 in test [1] came to 350 nM; in test [2], 0.4 nM; in test [4] it was 0.25 nM.

On to `CN(C(=O)OC(C)(C)C)[C@H](CS(=O)(=O)c1ccc(Oc2ccccc2)cc1)C(=O)NO` [Example 40], for which the figures for the IC50 in test [1], in test [2] and in test [4] were 1600 nM, 0.3 nM and 0.3 nM, respectively.

Consider `CN[C@@H](CS(=O)(=O)c1ccc(Oc2ccccc2)cc1)C(=O)NO` [Example 41], for which the IC50 is 440 nM and 670 nM in test [1]; 0.4 nM and 1 nM in test [2]; 0.3 nM and 0.5 nM in test [4].

`CC(=O)N(C)[C@@H](CS(=O)(=O)c1ccc(Oc2ccccc2)cc1)C(=O)NO` [Example 43]: the IC50 in test [1] was 90 nM; in test [2], 0.2 nM; in test [4], 0.2 nM.

`O=C(N[C@@H](CS(=O)(=O)c1ccc(Oc2ccccc2)cc1)C(=O)NO)c1ccncc1` [Example 44]: the results for the IC50 in test [1], in test [2] and in test [4] were 900 nM, 0.8 nM and 0.3 nM, respectively.

In the case of `O=C(N[C@@H](CS(=O)(=O)c1ccc(Oc2ccccc2)cc1)C(=O)NO)c1ccncc1` [Example 46], the IC50 amounted to 1310 nM in test [1], 1.1 nM in test [2] and 0.3 nM in test [4].

As to `CN(C(=O)Cc1ccncc1)[C@H](CS(=O)(=O)c1ccc(Oc2ccccc2)cc1)C(=O)NO` [Example 47], the values for the IC50 in test [1], in test [2] and in test [4] were 258 nM, 45.3 nM and 0.6 nM, respectively.

In the case of `CN(Cc1ccccc1)[C@H](CS(=O)(=O)c1ccc(Oc2ccccc2)cc1)C(=O)NO` [Example 48], the IC50 was 475 nM in test [1], 0.2 nM in test [2] and less than 0.1 nM in test [4].

For the compound `O=C(N[C@@H](CS(=O)(=O)c1ccc(Oc2ccccc2)cc1)C(=O)NO)c1ccnc2ccccc12` [Example 50], the IC50 in test [1] is 316 nM; in test [2], 0.3 nM; in test [4], 0.3 nM.

For the compound `O=C(N[C@@H](CS(=O)(=O)c1ccc(Oc2ccccc2)cc1)C(=O)NO)c1ccnc2ccccc12` [Example 51], the IC50 stood at 295 nM in test [1], 0.4 nM in test [2] and 0.3 nM in test [4].

Consider `CCN(CC)c1ccc(C(=O)N[C@@H](CS(=O)(=O)c2ccc(Oc3ccccc3)cc2)C(=O)NO)cc1` [Example 53], for which the IC50 in test [1] was 8100 nM; in test [2], 2.1 nM; in test [4], 0.3 nM.

On to `O=C(NO)[C@H](CS(=O)(=O)c1ccc(Oc2ccccc2)cc1)N1CCCCC1` [Example 54], for which the IC50 in test [1] turned out to be 345 nM; in test [2], 0.3 nM; in test [4], 0.2 nM.

Consider `CC(=O)N1CCC(C(=O)NC(CS(=O)(=O)c2ccc(Oc3ccccc3)cc2)C(=O)NO)CC1` (stereo not shown) [Example 59], for which the results for the IC50 in test [1], in test [2] and in test [4] were 580 nM, 0.8 nM and 0.4 nM, respectively.

For the compound `N[C@H](CNO)CS(=O)(=O)c1ccc(Oc2ccccc2)cc1` [Example 60], the IC50 in test [1] worked out at 440 nM; in test [2] it was 0.4 nM; in test [4], 0.3 nM.

As to `CC(N)(CS(=O)(=O)c1ccc(NC(=O)c2ccccc2)cc1)C(=O)NO` (stereo not shown) [Example 61], the concentration for half-maximal inhibition (IC50) in test [1] is more than 10000 nM; in test [2], 60 nM; in test [4], 1.1 nM.

Take `CC(C)(C)OC(=O)NC(C)(CS(=O)(=O)c1ccc(NC(=O)c2ccccc2)cc1)C(=O)NO` (stereo not shown) [Example 62]: the IC50 amounted to 72.3 nM in test [1], 1200 nM in test [2] and 23.9 nM in test [4].

For the compound `CN(C(=O)OC(C)(C)C)C(C)(CS(=O)(=O)c1ccc(NC(=O)c2ccccc2)cc1)C(=O)NO` (stereo not shown) [Example 63], the IC50 was found to be 3050 nM in test [1], 21.5 nM in test [2] and 1 nM in test [4].

On to `CNC(CS(=O)(=O)c1ccc(NC(=O)c2ccccc2)cc1)C(=O)NO` (stereo not shown) [Example 64], for which the IC50 was 7000 nM in test [1], 8.1 nM in test [2] and 0.4 nM in test [4].
